# Data reported in PubChem BioAssay AID1918956 (Molecular Pharmacology Branch, DTP, NCI, 2023).
# Where “and” joins values, the source holds several entries; their conditions need not be identical. Identical values can stand only once.
# System: OVCAR-5 complex spheroids, viability
# Experiment: Anticancer human tumor OVCAR-5 cell line growth inhibition;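 note: spheroids exposed to agents for seven days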;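 for viability, T/C: 100% = DMSO vehicle control wells viability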
# Conditions: for viability, T/C: stronger effect = lower value
# From the text: Multicellular complex tumor spheroid response to LSD1 Inhibitor Iadademstat in combination with a variety of drugs and investigational agents in selected tumor cell lines
# The current study was undertaken to assess response to LSD1 inhibitors in combination with standard-of-care drugs and investigational agents in solid tumor complex spheroid models as well as in the K-562 leukemia. Complex spheroids include a stromal component modeled by human endothelial cells (HUVEC) and fibroblasts modeled by human mesenchymal stem cells (MSCs). The concentration ranges selected for each drug and investigational agent were based upon clinically achievable concentrations if the clinical Cmax of the agent was known.
# Compounds. The drugs and investigational agents used in this study are listed on Table 1. All of the agents used, including staurosporine (NSC755774) and gemcitabine (NSC613327), were obtained from the Developmental Therapeutics Program, NCI. FDA-approved anticancer drugs are available from the NCI at http://dtp.nci.nih.gov/branches/dscb/oncology_drugset_explanation.html. Drugs and investigational agents were >95% pure by proton nuclear magnetic resonance (NMR) and liquid chromatography/mass spectrometry (LC/MS). Stock solutions were prepared at 400x in DMSO, stored at -70 degrees C, and diluted in fresh medium prior to their use. The final concentration of DMSO in cell culture wells never exceeded 0.25% (v/v). The FDA-approved anticancer drug set is available from the Developmental Therapeutics Program at https://dtp.cancer.gov/organization/dscb/obtaining/available_plates.htm. All drugs and investigational agents were tested over a range starting from a high concentration at or near the clinical Cmax and decreasing in half-log increments. If the clinical Cmax for an agent had not been determined, the highest concentration tested was 10 microM.
# Cell Lines. The patient-derived cancer cell (PDC) lines: 292921-168-R-J2-PDC, K24384-001-R-PDC, and 521955-158-R2-J5-PDC pancreatic carcinomas, 556581-035-R-J1 ovarian carcinoma, 324938-238-R-J1-PDC, 855422-203-R-J1-PDC and 883617-216-R-J1-PDC urothelial bladder carcinomas, 743489-274-T-PDC renal cell carcinoma, 138582-R-J1 Merkel cell tumor, K60290-347-R-J1 and K57222-313-R-J1-PDC glioblastomas, 653999-131-R-J2-PDC, LG0703-F948-PDC, and 349418-098-R-PDC non-small cell lung carcinomas, 885512-296-R-J2-PDC, 171881-019-R-J1-PDC breast carcinomas and 186277-243-T-J2-PDC and 233499-124-R-J2-PDC colon carcinomas were obtained from the NCI Patient-Derived Models Repository (PDMR, https://pdmr.cancer.gov). The established cell lines NCI/ADR-RES (RRID:CVCL_14520 and OVCAR-5 (RRID:CVCL_1628) ovarian carcinomas, 786-O (RRID:CVCL_1051) and A498 […] renal cell carcinoma, NCI-H211 (ATCC, cat. CRL-5824; RRID:CVCL_1529), NCI-H196 (ATCC, cat. CRL-5823, RRID:CVCL_1509), SW 1271 (ATCC, cat. CRL-2177, RRID:CVCL_1716) and NCI-H1876 (ATCC, cat. CRL-5902, RRID:CVCL_1503) small cell lung carcinomas, MDA-MB-231 (RRID:CVCL_0062) and MDA-MB-468 (RRID:CVCL_0419)breast carcinomas (10-12). Pooled donor human umbilical vein endothelial cells (HUVEC, Lonza, cat. CC-2519) and human mesenchymal stem cells (hMSC, Lonza, cat. PT-2501) were purchased from Lonza (Walkersville, MD).
# Cell Culture. All cells were maintained in an incubator at 37 degrees C and 5% CO2 with 95% humidity. The PDC lines were cultured according to standard operating procedures established by the NCI PDMR (https://pdmr.cancer.gov). Briefly all PDCs were thawed and cultured in Matrigel-coated flasks prepared with a working solution of 1X Ham's F-12 nutrient mix, without supplementation (Invitrogen, Waltham, MA, cat. 11765054), 100 U/mL penicillin-streptomycin (Invitrogen, cat. 15140122), and 2.5% Matrigel (Corning Inc., Corning, NY, cat. 354248) for the first three passages. […]
# [1] = curve of first compound, second compound 0.1 µM
# [2] = curve of first compound, second compound 0.316 µM
# [3] = curve of first compound, second compound 1 µM
# [4] = curve of first compound, second compound 3.16 µM
# [5] = curve of first compound, second compound 10 µM
# [6] = second compound 0.1 µM, first compound 0.00949 µM
# [7] = second compound 0.1 µM, first compound 0.03 µM
# [8] = second compound 0.1 µM, first compound 0.0949 µM
# [9] = second compound 0.1 µM, first compound 0.3 µM
# [10] = second compound 0.316 µM, first compound 0.00949 µM
# [11] = second compound 0.316 µM, first compound 0.03 µM
# [12] = second compound 0.316 µM, first compound 0.0949 µM
# [13] = second compound 0.316 µM, first compound 0.3 µM
# [14] = second compound 1 µM, first compound 0.00949 µM
# [15] = second compound 1 µM, first compound 0.03 µM
# [16] = second compound 1 µM, first compound 0.0949 µM
# [17] = second compound 1 µM, first compound 0.3 µM
# [18] = second compound 3.16 µM, first compound 0.00949 µM
# [19] = second compound 3.16 µM, first compound 0.03 µM
# [20] = second compound 3.16 µM, first compound 0.0949 µM
# [21] = second compound 3.16 µM, first compound 0.3 µM
# [22] = second compound 10 µM, first compound 0.00949 µM
# [23] = second compound 10 µM, first compound 0.03 µM
# [24] = second compound 10 µM, first compound 0.0949 µM
# [25] = second compound 10 µM, first compound 0.3 µM
smiles,measurement,setting,value
Nc1ncn(C2CC(O)C(CO)S2)c(=O)n1 (centres undefined) + NC1CC1c1ccc(-c2cccc(O)c2)cc1,IC50,[1],> 0.3 µM
same,IC50,[2],> 0.3 µM
same,IC50,[3],> 0.3 µM
same,IC50,[4],> 0.3 µM
same,IC50,[5],> 0.3 µM
same,"viability, T/C","second compound 0.1 µM, first compound 0.000949 µM",100%
same,"viability, T/C","second compound 0.1 µM, first compound 0.003 µM",110%
same,"viability, T/C",[6],104%
same,"viability, T/C",[7],95%
same,"viability, T/C",[8],80.9%
same,"viability, T/C",[9],71.2%
same,"viability, T/C","second compound 0.316 µM, first compound 0.000949 µM",107%
same,"viability, T/C","second compound 0.316 µM, first compound 0.003 µM",112%
same,"viability, T/C",[10],108%
same,"viability, T/C",[11],96.2%
same,"viability, T/C",[12],88.5%
same,"viability, T/C",[13],69.8%
same,"viability, T/C","second compound 1 µM, first compound 0.000949 µM",93.7%
same,"viability, T/C","second compound 1 µM, first compound 0.003 µM",86.6%
same,"viability, T/C",[14],93.9%
same,"viability, T/C",[15],92.4%
same,"viability, T/C",[16],74.7%
same,"viability, T/C",[17],61.7%
same,"viability, T/C","second compound 3.16 µM, first compound 0.000949 µM",95.8%
same,"viability, T/C","second compound 3.16 µM, first compound 0.003 µM",97.8%
same,"viability, T/C",[18],91.3%
same,"viability, T/C",[19],81.6%
same,"viability, T/C",[20],79.8%
same,"viability, T/C",[21],64.4%
same,"viability, T/C","second compound 10 µM, first compound 0.000949 µM",79%
same,"viability, T/C","second compound 10 µM, first compound 0.003 µM",93.6%
same,"viability, T/C",[22],84.8%
same,"viability, T/C",[23],78.1%
same,"viability, T/C",[24],70%
same,"viability, T/C",[25],60%
NS(=O)(=O)OCC1CC(n2ccc3c(NC4CCc5ccccc54)ncnc32)CC1O (centres undefined),"viability, T/C",compound 0.00949 µM,105% and 120%
same,"viability, T/C",compound 0.03 µM,102% and 114%
same,"viability, T/C",compound 0.0949 µM,82.6% and 75.8%
same,"viability, T/C",compound 0.3 µM,37.4% and 25.6%
same,"viability, T/C",compound 0.949 µM,16.1% and 7.66%
same,"viability, T/C",compound 3 µM,9.41% and 4.92%
same,IC50,curve of compound,0.219 µM and 0.172 µM
CC1(C)CCC(CN2CCN(c3ccc(C(=O)NS(=O)(=O)c4ccc(NCC5CCOCC5)c([N+](=O)[O-])c4)c(Oc4cnc5[nH]ccc5c4)c3)CC2)=C(c2ccc(Cl)cc2)C1 + NC1CC1c1ccc(-c2cccc(O)c2)cc1,IC50,[1],7.44 µM
same,IC50,[2],7.76 µM
same,IC50,[3],7.37 µM
same,IC50,[4],7.61 µM
same,IC50,[5],7.57 µM
same,"viability, T/C","second compound 0.1 µM, first compound 0.0316 µM",99.4%
same,"viability, T/C","second compound 0.1 µM, first compound 0.1 µM",97.3%
same,"viability, T/C","second compound 0.1 µM, first compound 0.316 µM",110%
same,"viability, T/C","second compound 0.1 µM, first compound 1 µM",97.2%
same,"viability, T/C","second compound 0.1 µM, first compound 3.16 µM",103%
same,"viability, T/C","second compound 0.1 µM, first compound 10 µM",32.1%
same,"viability, T/C","second compound 0.316 µM, first compound 0.0316 µM",107%
same,"viability, T/C","second compound 0.316 µM, first compound 0.1 µM",112%
same,"viability, T/C","second compound 0.316 µM, first compound 0.316 µM",106%
same,"viability, T/C","second compound 0.316 µM, first compound 1 µM",101%
same,"viability, T/C","second compound 0.316 µM, first compound 3.16 µM",100%
same,"viability, T/C","second compound 0.316 µM, first compound 10 µM",35.6%
same,"viability, T/C","second compound 1 µM, first compound 0.0316 µM",110%
same,"viability, T/C","second compound 1 µM, first compound 0.1 µM",92.4%
same,"viability, T/C","second compound 1 µM, first compound 0.316 µM",93.3%
same,"viability, T/C","second compound 1 µM, first compound 1 µM",105%
same,"viability, T/C","second compound 1 µM, first compound 3.16 µM",94.4%
same,"viability, T/C","second compound 1 µM, first compound 10 µM",33.7%
same,"viability, T/C","second compound 3.16 µM, first compound 0.0316 µM",103%
same,"viability, T/C","second compound 3.16 µM, first compound 0.1 µM",86.9%
same,"viability, T/C","second compound 3.16 µM, first compound 0.316 µM",88.5%
same,"viability, T/C","second compound 3.16 µM, first compound 1 µM",106%
same,"viability, T/C","second compound 3.16 µM, first compound 3.16 µM",96%
same,"viability, T/C","second compound 3.16 µM, first compound 10 µM",35.7%
same,"viability, T/C","second compound 10 µM, first compound 0.0316 µM",89.3%
same,"viability, T/C","second compound 10 µM, first compound 0.1 µM",85%
same,"viability, T/C","second compound 10 µM, first compound 0.316 µM",85.9%
same,"viability, T/C","second compound 10 µM, first compound 1 µM",86%
same,"viability, T/C","second compound 10 µM, first compound 3.16 µM",85%
same,"viability, T/C","second compound 10 µM, first compound 10 µM",38.9%
O=C(C=Cc1cccc(S(=O)(=O)Nc2ccccc2)c1)NO + NC1CCC(NC2CC2c2ccccc2)CC1,IC50,[1],0.157 µM
same,IC50,[2],0.172 µM
same,IC50,[3],0.192 µM
same,IC50,[4],0.167 µM
same,IC50,[5],0.173 µM
same,"viability, T/C",[6],98.5%
same,"viability, T/C",[7],92.8%
same,"viability, T/C",[8],62.8%
same,"viability, T/C",[9],31.2%
same,"viability, T/C","second compound 0.1 µM, first compound 0.949 µM",15.3%
same,"viability, T/C","second compound 0.1 µM, first compound 3 µM",4.12%
same,"viability, T/C",[10],95.7%
same,"viability, T/C",[11],89.1%
same,"viability, T/C",[12],64.6%
same,"viability, T/C",[13],35.5%
same,"viability, T/C","second compound 0.316 µM, first compound 0.949 µM",14.4%
same,"viability, T/C","second compound 0.316 µM, first compound 3 µM",3.93%
same,"viability, T/C",[14],106%
same,"viability, T/C",[15],96%
same,"viability, T/C",[16],69.7%
same,"viability, T/C",[17],37.8%
same,"viability, T/C","second compound 1 µM, first compound 0.949 µM",14.3%
same,"viability, T/C","second compound 1 µM, first compound 3 µM",6.24%
same,"viability, T/C",[18],88%
same,"viability, T/C",[19],86.1%
same,"viability, T/C",[20],62.2%
same,"viability, T/C",[21],35.3%
same,"viability, T/C","second compound 3.16 µM, first compound 0.949 µM",15.6%
same,"viability, T/C","second compound 3.16 µM, first compound 3 µM",3.02%
same,"viability, T/C",[22],89.5%
same,"viability, T/C",[23],89.2%
same,"viability, T/C",[24],60%
same,"viability, T/C",[25],37.8%
same,"viability, T/C","second compound 10 µM, first compound 0.949 µM",16.7%
same,"viability, T/C","second compound 10 µM, first compound 3 µM",2.99%
NC1CC1c1ccc(-c2cccc(O)c2)cc1 (centres undefined),"viability, T/C",compound 10 µM,89.8% [middle of 25 runs]
same,IC50,"compound alone, run of 12/07/2021",> 10 µM
